Measurements published in ChEMBL document CHEMBL5154907, “Discovery and Anti-Inflammatory Activity Evaluation of a Novel CDK8 Inhibitor through Upregulation of IL-10 for the Treatment of Inflammatory Bowel Disease In Vivo” (J Med Chem, 2022).
pIC50: −log10 of the molar value.

Key:
[1] = Transcriptional activity of AP-1 in R848-stimulated mouse BMDC cells transfected with pAP1-luc assessed as ratio of AP-1 activity at 5 uM treated for 24 hrs followed by R848 stimulation for 4 hrs by luminescence based microplate reader analysis relative to control; assay type: functional; conditions: time 28 hrs
BMDC = test: Anti-inflammatory activity against R848-stimulated mouse BMDC cells assessed as upregulation of IL-10 production at 5 uM treated for 24 hrs followed by R848 stimulation for 12 hrs by ELISA method (reference value: 100 %); assay type: functional; conditions: time 36 hrs
CDK8/Cyclin C = CDK8/Cyclin C (Homo sapiens, UniProt P49336); test: Inhibition of recombinant full length His tagged human CDK8/Cyclin C expressed in Baculovirus incubated for 60 mins in presence of ATP by ADP-Glo kinase assay
Sequence of CDK8/Cyclin C (P49336 whole entry): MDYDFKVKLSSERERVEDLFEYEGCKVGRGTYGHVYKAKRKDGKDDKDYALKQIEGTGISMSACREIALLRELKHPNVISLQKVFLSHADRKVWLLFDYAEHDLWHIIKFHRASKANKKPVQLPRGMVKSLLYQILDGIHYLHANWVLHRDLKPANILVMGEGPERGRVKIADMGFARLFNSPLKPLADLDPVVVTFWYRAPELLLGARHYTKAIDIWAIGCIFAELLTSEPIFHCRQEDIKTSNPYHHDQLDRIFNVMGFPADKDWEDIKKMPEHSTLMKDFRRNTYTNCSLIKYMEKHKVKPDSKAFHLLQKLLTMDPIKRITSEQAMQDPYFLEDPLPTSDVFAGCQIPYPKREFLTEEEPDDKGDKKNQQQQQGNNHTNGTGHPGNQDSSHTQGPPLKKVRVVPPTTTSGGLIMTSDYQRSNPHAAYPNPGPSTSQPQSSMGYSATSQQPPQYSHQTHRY
Sequence of CDK8/Cyclin C (P24863 whole entry, further chain): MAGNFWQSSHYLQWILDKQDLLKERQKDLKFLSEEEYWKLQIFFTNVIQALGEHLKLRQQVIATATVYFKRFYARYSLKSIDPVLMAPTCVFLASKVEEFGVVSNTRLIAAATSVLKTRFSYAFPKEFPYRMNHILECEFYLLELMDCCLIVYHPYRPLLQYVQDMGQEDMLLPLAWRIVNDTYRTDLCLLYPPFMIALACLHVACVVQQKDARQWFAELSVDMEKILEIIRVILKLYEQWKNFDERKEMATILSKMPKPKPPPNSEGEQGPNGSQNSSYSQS

[2] = Stability of compound in human liver microsome assessed as intrinsic clearance by HPLC analysis; assay type: ADME; conditions: liver microsomes, read-out: CLH
[3] = molecular target: CDK8/Cyclin C (Homo sapiens) (UniProt P49336+P24863); test: Inhibition of recombinant full length His tagged human CDK8/Cyclin C expressed in Baculovirus at 200 nM incubated for 60 mins in presence of ATP by ADP-Glo kinase assay

Row | SMILES | pIC50 (CDK8/Cyclin C) | microsomal CLint [2] | inhibition [3] | Ratio [1] | Activity (BMDC)
1 | COc1c(O)cc(O)c2c(=O)cc(-c3ccccc3)oc12 [WOGONIN] | 5.23 | 11.3 µL/min/mg | – | 1.4 | 65%
2 | Nc1ncc(C(=O)Nc2ccccc2)cc1-c1ccc(C(=O)N2CCNCC2)cc1 | 6.59 | – | 44% | 1.7 | 56%
3 | CCc1ccc(NC(=O)c2cncc(-c3ccc(C(=O)N4CCNCC4)cc3)c2)cc1 | 7.02 | – | 71% | 1.9 | 40%
4 | CCc1cccc(NC(=O)c2cncc(-c3ccc(C(=O)N4CCNCC4)cc3)c2)c1 | 6.98 | – | 73% | 1.7 | 34%
5 | CC(=O)Nc1ccc(NC(=O)c2cncc(-c3ccc(C(=O)N4CCNCC4)cc3)c2)cc1 | 5.98 | – | 35% | 1.1 | 37%
6 | O=c1cc(-c2ccccc2)oc2cc(-c3ccc(CN4CCNCC4)cc3)cc(O)c12 | 6.84 | 15.9 µL/min/mg | 69% | 1.9 | 33%
7 | Nc1ncc(-c2ccc(C(=O)N3CCNCC3)cc2)cc1C(=O)Nc1ccccc1 | 6.87 | – | 62% | 2.7 | 61%
8 | O=C(Nc1ccccc1)c1cc(O)cc(-c2ccc(C(=O)N3CCNCC3)cc2)c1 | 6.28 | 9.5 µL/min/mg | 30% | 1.3 | 82%
9 | O=C(Nc1ccccc1)c1cncc(-c2ccc(C(=O)N3CCNCC3)cc2)c1 | 7.10 | 7.3 µL/min/mg | 79% | 2.8 | 76%
10 | Nc1ccc(NC(=O)c2cncc(-c3ccc(C(=O)N4CCNCC4)cc3)c2)cc1 | 5.44 | – | 34% | 1.72 | 30%
11 | Nc1ccc(-c2cc(O)c3c(=O)cc(-c4ccccc4)oc3c2)cc1 | 6.95 | – | 64% | 2.6 | 21%
12 | Cc1cccc(NC(=O)c2cncc(-c3ccc(C(=O)N4CCNCC4)cc3)c2)c1 | 7.12 | – | 76% | 1.6 | 62%
13 | O=C(Nc1ccccc1)c1cc(-c2ccc(C(=O)N3CCNCC3)cc2)ccc1O | 6.68 | – | 54% | 1.2 | 40%
14 | Cc1ccc(-c2cc(O)c3c(=O)cc(-c4ccccc4)oc3c2)cc1 | 6.81 | – | 62% | 2.6 | 83%
15 | Nc1ccccc1NC(=O)c1cncc(-c2ccc(C(=O)N3CCNCC3)cc2)c1 | 6.02 | – | 27% | 1.63 | 24%
16 | O=c1cc(-c2ccccc2)oc2cc(-c3ccccc3)cc(O)c12 | 6.63 | 10.9 µL/min/mg | 46% | 1.5 | –

Further compounds by rising pIC50 (CDK8/Cyclin C), results first:

Row | pIC50 (CDK8/Cyclin C) | microsomal CLint [2] | inhibition [3] | SMILES | Ratio [1] | Activity (BMDC)
17 | 5.83 | – | 20% | O=C(Nc1ccc(Cl)cc1)c1cncc(-c2ccc(C(=O)N3CCNCC3)cc2)c1 | 1.55 | 33%
18 | 6.67 | – | 57% | O=C(Nc1ccccc1)c1ccc(O)c(-c2ccc(C(=O)N3CCNCC3)cc2)c1 | 1.2 | 26%
19 | 6.72 | 13.7 µL/min/mg | 53% | O=c1cc(-c2ccccc2)oc2cc(-c3ccc(N4CCNCC4)cc3)cc(O)c12 | 1.5 | 80%
20 | 7.06 | 10.4 µL/min/mg | 78% | O=C(Nc1ccccc1)c1cc(-c2ccc(C(=O)N3CCNCC3)cc2)ccn1 | 2.3 | 72%
21 | 7.09 | – | 77% | COc1ccc(NC(=O)c2cncc(-c3ccc(C(=O)N4CCNCC4)cc3)c2)cc1 | 1.7 | 74%
22 | 7.10 | 10.9 µL/min/mg | 65% | O=C(Nc1ccccc1)c1ccnc(-c2ccc(C(=O)N3CCNCC3)cc2)c1 | 2.4 | 29%
23 | 7.14 | 12.9 µL/min/mg | 75% | O=C(c1ccc(-c2cc(O)c3c(=O)cc(-c4ccccc4)oc3c2)cc1)N1CCNCC1 | 2.4 | 43%
24 | 7.15 | 13 µL/min/mg | 81% | Cc1ccccc1NC(=O)c1cncc(-c2ccc(C(=O)N3CCNCC3)cc2)c1 | 1.5 | 70%
25 | 7.19 | 7 µL/min/mg | 80% | COc1cccc(NC(=O)c2cncc(-c3ccc(C(=O)N4CCNCC4)cc3)c2)c1 | 2 | 65%
